Tests used:
[1] = tested on: Gram-negative bacteria (including P. aeruginosa, E. cloacae, K. pneumoniae, E. coli, and A. baumannii); test: Propidium iodide uptake; format: cell-based
Source text: The damage caused by the Chp peptides disclosed herein to the outer and inner membranes of Gram-negative bacteria can also be assessed with impermeable dyes such as propidium iodide. […] AGENTS CHEMO. 2012; 56:5698-5708.

[2] = tested on: P. aeruginosa strain CFS-1292; test: LIVE/DEAD stain microscopy in 100% human serum; format: cell-based, Pseudomonas aeruginosa; conditions: 15 minutes, 10 μg/mL
Source text: Samples were visualized by BF and fluorescence microscopy (10 ms exposure). […] was used to label live cells, and PI was used to label damaged and dead cells.

[3] = tested on: Acinetobacter baumannii isolates; test: MIC against CDC Acinetobacter baumannii panel (n = 41); format: cell-based
Protocol: MIC values were determined using the methodology described above, i.e., the standard broth microdilution reference method defined by CLSI.

## MRLKMARRRYRLPRRRSRRLFSRTALRMHPRNRLRRIMRGGIRF [Chp2]
[1]
  cell envelop permeability (propidium iodide uptake): dose-dependent increase in cell envelop permeability was equivalent to that of colistin, LL37, and melittin
[2]
  killing of P. aeruginosa, Live/Dead Cell Viability Kit: reduction of live bacteria
[3]; Actinobacter baumannii panel
  MIC50: 0.5 µg/mL
  MIC90: 1 µg/mL
[3]; CDC Antibiotic-Resistant Bank No. 0273
  MIC: 1 µg/mL
[3]; CDC Antibiotic-Resistant Bank No. 0274
  MIC: 0.5 µg/mL
[3]; CDC Antibiotic-Resistant Bank No. 0275
  MIC: 0.5 µg/mL
[3]; CDC Antibiotic-Resistant Bank No. 0276
  MIC: 0.5 µg/mL
[3]; CDC Antibiotic-Resistant Bank No. 0277
  MIC: 0.5 µg/mL
[3]; CDC Antibiotic-Resistant Bank No. 0278
  MIC: 1 µg/mL
[3]; CDC Antibiotic-Resistant Bank No. 0279
  MIC: 1 µg/mL
[3]; CDC Antibiotic-Resistant Bank No. 0280
  MIC: 1 µg/mL
[3]; CDC Antibiotic-Resistant Bank No. 0281
  MIC: 1 µg/mL
[3]; CDC Antibiotic-Resistant Bank No. 0282
  MIC: 0.5 µg/mL
[3]; CDC Antibiotic-Resistant Bank No. 0283
  MIC: 1 µg/mL
[3]; CDC Antibiotic-Resistant Bank No. 0284
  MIC: 0.5 µg/mL
[3]; CDC Antibiotic-Resistant Bank No. 0285
  MIC: 0.5 µg/mL
[3]; CDC Antibiotic-Resistant Bank No. 0286
  MIC: 1 µg/mL
[3]; CDC Antibiotic-Resistant Bank No. 0287
  MIC: 0.5 µg/mL
[3]; CDC Antibiotic-Resistant Bank No. 0288
  MIC: 0.25 µg/mL
[3]; CDC Antibiotic-Resistant Bank No. 0289
  MIC: 0.5 µg/mL
[3]; CDC Antibiotic-Resistant Bank No. 0290
  MIC: 0.5 µg/mL
[3]; CDC Antibiotic-Resistant Bank No. 0291
  MIC: 0.5 µg/mL
[3]; CDC Antibiotic-Resistant Bank No. 0292
  MIC: 0.5 µg/mL
[3]; CDC Antibiotic-Resistant Bank No. 0293
  MIC: 0.5 µg/mL
[3]; CDC Antibiotic-Resistant Bank No. 0294
  MIC: 0.5 µg/mL
[3]; CDC Antibiotic-Resistant Bank No. 0295
  MIC: 1 µg/mL
[3]; CDC Antibiotic-Resistant Bank No. 0296
  MIC: 0.5 µg/mL
[3]; CDC Antibiotic-Resistant Bank No. 0297
  MIC: 1 µg/mL
[3]; CDC Antibiotic-Resistant Bank No. 0298
  MIC: 0.5 µg/mL
[3]; CDC Antibiotic-Resistant Bank No. 0299
  MIC: 1 µg/mL
[3]; CDC Antibiotic-Resistant Bank No. 0300
  MIC: 2 µg/mL
[3]; CDC Antibiotic-Resistant Bank No. 0301
  MIC: 1 µg/mL
[3]; CDC Antibiotic-Resistant Bank No. 0302
  MIC: 1 µg/mL
[3]; CDC Antibiotic-Resistant Bank No. 0303
  MIC: 1 µg/mL
[3]; CDC Antibiotic-Resistant Bank No. 0304
  MIC: 0.5 µg/mL
[3]; CDC Antibiotic-Resistant Bank No. 0305
  MIC: 0.5 µg/mL
[3]; CDC Antibiotic-Resistant Bank No. 0306
  MIC: 0.5 µg/mL
[3]; CDC Antibiotic-Resistant Bank No. 0307
  MIC: 1 µg/mL
[3]; CDC Antibiotic-Resistant Bank No. 0308
  MIC: 1 µg/mL
[3]; CDC Antibiotic-Resistant Bank No. 0309
  MIC: 1 µg/mL
[3]; CDC Antibiotic-Resistant Bank No. 0310
  MIC: 0.5 µg/mL
[3]; CDC Antibiotic-Resistant Bank No. 0311
  MIC: 0.5 µg/mL
[3]; CDC Antibiotic-Resistant Bank No. 0312
  MIC: 0.5 µg/mL
[3]; CDC Antibiotic-Resistant Bank No. 0313
  MIC: 0.5 µg/mL

— patent US20220401514A1, “ANTIMICROBIAL, BACTERIOPHAGE-DERIVED POLYPEPTIDES AND THEIR USE AGAINST GRAM-NEGATIVE AND ACID-FAST BACTERIA” (CONTRAFECT CORPORATION, priority 2019, published 2022)
